The record followed here is US10870647B2, “Imidazopyridine derivative, method for preparing same, and pharmaceutical composition containing same as active ingredient for preventing or treating cancer” (DAEGU-GYEONGBUK MEDICAL INNOVATION FOUNDATION, priority 2016, dated 2020).

What all share (test): Kinase selectivity, scanMAX Kinase assay panel (DiscoverX), % control at 1 uM
Assay type in all cases: binding

In test [1] the target is T1, scanMAX Kinase assay panel (Homo sapiens, UniProt P53350).
T1 construct: purchased DiscoverX
T1 sequence (P53350 whole entry): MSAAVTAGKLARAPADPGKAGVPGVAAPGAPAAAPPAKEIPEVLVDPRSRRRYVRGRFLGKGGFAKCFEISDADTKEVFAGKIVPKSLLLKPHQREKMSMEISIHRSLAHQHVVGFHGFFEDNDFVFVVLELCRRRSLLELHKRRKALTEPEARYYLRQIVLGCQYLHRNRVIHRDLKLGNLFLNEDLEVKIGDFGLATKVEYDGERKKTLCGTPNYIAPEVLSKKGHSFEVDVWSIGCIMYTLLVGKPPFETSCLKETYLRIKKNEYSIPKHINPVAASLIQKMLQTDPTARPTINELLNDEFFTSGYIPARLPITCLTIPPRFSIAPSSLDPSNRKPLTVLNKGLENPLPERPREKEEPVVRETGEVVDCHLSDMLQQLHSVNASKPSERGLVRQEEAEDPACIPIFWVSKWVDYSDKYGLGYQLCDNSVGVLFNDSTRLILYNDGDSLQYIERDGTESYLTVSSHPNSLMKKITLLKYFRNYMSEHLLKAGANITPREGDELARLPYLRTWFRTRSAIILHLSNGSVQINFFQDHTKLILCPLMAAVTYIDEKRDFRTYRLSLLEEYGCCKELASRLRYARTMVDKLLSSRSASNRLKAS
The note with it: PLK1; 1 uM; read-out: Percent Control (%). In outline: (§1)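 A single concentration of 1 uM, in DMSO, is applied across the kinase panel. Activity against an individual enzyme is assigned where % control is less than 35.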

For test [2], the target named is T2, scanMAX Kinase assay panel (Homo sapiens, UniProt Q9H1R3).
T2 construct: purchased DiscoverX
The settings on record: MYLK2; 1 uM; read-out: Percent Control (%). In a few lines: as §1

In test [3] the target is T3, scanMAX Kinase assay panel (Homo sapiens, UniProt Q16832).
T3 construct: purchased DiscoverX
T3 sequence (Q16832 22-855): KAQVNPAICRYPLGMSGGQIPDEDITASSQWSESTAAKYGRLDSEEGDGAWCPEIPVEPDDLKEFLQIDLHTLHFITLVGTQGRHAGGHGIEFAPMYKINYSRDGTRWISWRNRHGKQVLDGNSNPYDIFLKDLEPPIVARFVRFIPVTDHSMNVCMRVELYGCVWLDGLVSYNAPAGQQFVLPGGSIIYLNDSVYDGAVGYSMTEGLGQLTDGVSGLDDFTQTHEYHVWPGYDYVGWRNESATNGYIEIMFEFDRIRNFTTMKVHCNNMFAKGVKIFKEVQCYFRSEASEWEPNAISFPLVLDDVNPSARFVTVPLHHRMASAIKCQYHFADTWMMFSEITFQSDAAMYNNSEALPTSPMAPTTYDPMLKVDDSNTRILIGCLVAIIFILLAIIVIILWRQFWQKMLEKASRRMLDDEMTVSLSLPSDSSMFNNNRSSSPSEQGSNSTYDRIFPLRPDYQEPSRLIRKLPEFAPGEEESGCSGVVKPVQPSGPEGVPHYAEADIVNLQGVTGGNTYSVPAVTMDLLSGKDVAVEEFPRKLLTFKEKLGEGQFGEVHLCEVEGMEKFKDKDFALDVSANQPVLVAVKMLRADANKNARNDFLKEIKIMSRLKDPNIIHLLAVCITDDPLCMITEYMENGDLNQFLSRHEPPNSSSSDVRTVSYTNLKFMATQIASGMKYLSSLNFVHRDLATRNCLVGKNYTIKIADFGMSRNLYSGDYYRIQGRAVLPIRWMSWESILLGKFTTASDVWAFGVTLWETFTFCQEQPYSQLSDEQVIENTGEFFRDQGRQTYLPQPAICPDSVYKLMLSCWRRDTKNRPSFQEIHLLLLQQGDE
The note with it: DDR2; 1 uM; read-out: Percent Control (%). In a few lines: as §1

Test [4] has as its target T4, scanMAX Kinase assay panel (Homo sapiens, UniProt P68400).
T4 construct: purchased DiscoverX
The settings on record: CSNK2A1; 1 uM; read-out: Percent Control (%). In outline:
as §1

The target of test [5] is T5, scanMAX Kinase assay panel (Homo sapiens, UniProt P04049).
T5 construct: purchased DiscoverX
T5 sequence (P04049 whole entry): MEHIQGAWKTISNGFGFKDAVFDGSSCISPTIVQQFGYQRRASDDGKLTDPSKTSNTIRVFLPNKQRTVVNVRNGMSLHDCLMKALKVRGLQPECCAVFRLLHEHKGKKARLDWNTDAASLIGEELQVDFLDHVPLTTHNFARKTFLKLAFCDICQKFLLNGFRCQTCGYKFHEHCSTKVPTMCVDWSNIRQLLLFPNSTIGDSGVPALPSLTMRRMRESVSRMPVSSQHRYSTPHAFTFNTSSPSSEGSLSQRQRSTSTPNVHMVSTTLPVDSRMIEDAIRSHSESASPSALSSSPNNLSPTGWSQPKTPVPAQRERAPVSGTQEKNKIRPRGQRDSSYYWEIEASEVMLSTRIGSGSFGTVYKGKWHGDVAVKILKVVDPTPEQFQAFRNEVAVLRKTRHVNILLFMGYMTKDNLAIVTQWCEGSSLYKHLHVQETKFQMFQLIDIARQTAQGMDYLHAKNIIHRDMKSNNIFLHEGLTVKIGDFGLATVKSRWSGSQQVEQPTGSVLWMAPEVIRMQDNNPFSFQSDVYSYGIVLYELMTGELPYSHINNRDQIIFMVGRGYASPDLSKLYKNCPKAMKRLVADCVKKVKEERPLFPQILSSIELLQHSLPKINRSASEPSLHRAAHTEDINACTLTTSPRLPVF
The settings on record: RAF1; 1 uM; read-out: Percent Control (%). In a few lines:
as §1

In test [6] the target is T6, scanMAX Kinase assay panel (Homo sapiens, UniProt O75716).
T6 construct: purchased DiscoverX
T6 sequence (O75716 whole entry): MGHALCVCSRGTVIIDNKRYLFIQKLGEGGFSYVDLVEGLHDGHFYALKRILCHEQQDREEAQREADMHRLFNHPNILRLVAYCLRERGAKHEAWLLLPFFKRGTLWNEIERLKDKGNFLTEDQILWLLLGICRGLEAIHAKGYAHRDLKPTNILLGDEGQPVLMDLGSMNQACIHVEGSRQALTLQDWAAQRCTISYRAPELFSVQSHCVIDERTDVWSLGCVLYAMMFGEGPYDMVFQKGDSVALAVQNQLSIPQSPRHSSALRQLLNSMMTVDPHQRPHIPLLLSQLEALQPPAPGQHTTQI
The note with it: STK16; 1 uM; read-out: Percent Control (%). In a few lines:
as §1

In test [7] the target is T7, scanMAX Kinase assay panel (Homo sapiens, UniProt P10721, T670I/V559D).
T7 construct: purchased DiscoverX
T7 sequence (P10721 26-976 V559D/T670I): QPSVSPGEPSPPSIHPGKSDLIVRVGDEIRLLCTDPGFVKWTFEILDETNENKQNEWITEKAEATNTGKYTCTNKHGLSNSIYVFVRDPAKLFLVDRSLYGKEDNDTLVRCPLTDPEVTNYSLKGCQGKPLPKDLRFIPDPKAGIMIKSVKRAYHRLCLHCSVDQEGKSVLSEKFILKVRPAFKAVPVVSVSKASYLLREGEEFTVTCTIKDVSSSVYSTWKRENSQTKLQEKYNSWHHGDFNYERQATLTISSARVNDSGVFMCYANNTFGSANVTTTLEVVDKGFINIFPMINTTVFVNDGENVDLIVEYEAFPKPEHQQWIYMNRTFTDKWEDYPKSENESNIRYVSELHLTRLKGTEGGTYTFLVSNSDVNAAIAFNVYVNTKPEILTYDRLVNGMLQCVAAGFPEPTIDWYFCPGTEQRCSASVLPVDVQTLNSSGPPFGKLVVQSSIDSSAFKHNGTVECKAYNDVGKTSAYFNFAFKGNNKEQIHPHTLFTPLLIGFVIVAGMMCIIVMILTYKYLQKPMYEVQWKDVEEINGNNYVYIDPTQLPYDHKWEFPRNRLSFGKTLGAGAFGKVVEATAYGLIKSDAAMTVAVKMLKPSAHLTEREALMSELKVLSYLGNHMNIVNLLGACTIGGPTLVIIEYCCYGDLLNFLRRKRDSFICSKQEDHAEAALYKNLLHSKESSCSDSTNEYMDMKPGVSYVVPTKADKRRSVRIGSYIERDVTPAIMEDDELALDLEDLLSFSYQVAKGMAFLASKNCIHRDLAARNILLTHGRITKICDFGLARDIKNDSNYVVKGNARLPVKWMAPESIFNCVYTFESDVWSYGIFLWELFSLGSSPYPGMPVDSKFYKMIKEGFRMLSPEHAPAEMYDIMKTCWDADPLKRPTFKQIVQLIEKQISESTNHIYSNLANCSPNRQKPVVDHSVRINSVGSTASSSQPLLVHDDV
The settings on record: KIT (V559D, T670I); 1 uM; read-out: Percent Control (%). In a few lines:
as §1

Test [8] deals with T8, scanMAX Kinase assay panel (Homo sapiens, UniProt Q9NY57).
T8 construct: purchased DiscoverX
T8 sequence (Q9NY57 whole entry): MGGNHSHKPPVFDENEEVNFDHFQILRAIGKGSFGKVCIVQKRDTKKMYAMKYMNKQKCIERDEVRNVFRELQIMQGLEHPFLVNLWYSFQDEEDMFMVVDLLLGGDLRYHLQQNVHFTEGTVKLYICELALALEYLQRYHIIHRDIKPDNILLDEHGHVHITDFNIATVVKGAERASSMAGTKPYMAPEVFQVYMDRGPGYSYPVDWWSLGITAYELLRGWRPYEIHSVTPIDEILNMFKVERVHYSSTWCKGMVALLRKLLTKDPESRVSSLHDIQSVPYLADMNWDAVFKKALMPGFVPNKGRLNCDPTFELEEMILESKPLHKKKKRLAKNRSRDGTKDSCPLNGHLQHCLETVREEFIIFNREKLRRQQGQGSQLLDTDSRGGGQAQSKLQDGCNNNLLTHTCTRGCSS
The note with it: YANK2; 1 uM; read-out: Percent Control (%). In a few lines: as §1

Test [9] addresses T9, scanMAX Kinase assay panel (Homo sapiens, UniProt Q8NEB9).
T9 construct: purchased DiscoverX
The settings on record: VPS34; 1 uM; read-out: Percent Control (%). In a few lines: as §1

Test [10] has as its target T10, scanMAX Kinase assay panel (Homo sapiens, UniProt Q96PN8).
T10 construct: purchased DiscoverX
T10 sequence (Q96PN8 1-268): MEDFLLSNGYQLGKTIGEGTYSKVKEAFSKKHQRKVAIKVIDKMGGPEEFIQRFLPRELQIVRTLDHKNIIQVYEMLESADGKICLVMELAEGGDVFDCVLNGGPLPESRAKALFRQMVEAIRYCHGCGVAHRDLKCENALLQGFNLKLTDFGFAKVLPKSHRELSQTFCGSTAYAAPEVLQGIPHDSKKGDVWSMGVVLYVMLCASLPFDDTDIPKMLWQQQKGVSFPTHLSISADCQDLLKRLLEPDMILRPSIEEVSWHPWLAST
The settings on record: TSSK3; 1 uM; read-out: Percent Control (%). In a few lines:
as §1

Test [11] has as its target T11, scanMAX Kinase assay panel (Homo sapiens, UniProt Q6DT37).
T11 construct: purchased DiscoverX
The settings on record: DMPK2; 1 uM; read-out: Percent Control (%). In a few lines:
as §1

The target in test [12] is T12, scanMAX Kinase assay panel (Homo sapiens, UniProt P29376).
T12 construct: purchased DiscoverX
The settings on record: LTK; 1 uM; read-out: Percent Control (%). In outline:
as §1

The target in test [13] is T13, scanMAX Kinase assay panel (Homo sapiens, UniProt Q9UBE8).
T13 construct: purchased DiscoverX
T13 sequence (Q9UBE8 1-527): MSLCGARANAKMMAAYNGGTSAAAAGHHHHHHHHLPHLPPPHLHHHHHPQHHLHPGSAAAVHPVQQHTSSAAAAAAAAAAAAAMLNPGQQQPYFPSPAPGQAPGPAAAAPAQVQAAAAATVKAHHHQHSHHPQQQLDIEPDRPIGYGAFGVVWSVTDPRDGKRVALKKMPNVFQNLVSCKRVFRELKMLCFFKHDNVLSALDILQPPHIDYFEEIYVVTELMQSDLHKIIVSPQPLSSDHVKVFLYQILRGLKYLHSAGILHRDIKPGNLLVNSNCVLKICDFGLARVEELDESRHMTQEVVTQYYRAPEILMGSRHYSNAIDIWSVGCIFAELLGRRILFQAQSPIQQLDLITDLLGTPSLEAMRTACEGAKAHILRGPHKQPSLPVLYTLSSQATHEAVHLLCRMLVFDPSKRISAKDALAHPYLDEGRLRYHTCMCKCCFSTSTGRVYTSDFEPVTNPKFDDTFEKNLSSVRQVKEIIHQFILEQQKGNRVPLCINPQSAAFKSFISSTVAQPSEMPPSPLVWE
The settings on record: NLK; 1 uM; read-out: Percent Control (%). In outline:
as §1

T4 sequence (P68400 whole entry): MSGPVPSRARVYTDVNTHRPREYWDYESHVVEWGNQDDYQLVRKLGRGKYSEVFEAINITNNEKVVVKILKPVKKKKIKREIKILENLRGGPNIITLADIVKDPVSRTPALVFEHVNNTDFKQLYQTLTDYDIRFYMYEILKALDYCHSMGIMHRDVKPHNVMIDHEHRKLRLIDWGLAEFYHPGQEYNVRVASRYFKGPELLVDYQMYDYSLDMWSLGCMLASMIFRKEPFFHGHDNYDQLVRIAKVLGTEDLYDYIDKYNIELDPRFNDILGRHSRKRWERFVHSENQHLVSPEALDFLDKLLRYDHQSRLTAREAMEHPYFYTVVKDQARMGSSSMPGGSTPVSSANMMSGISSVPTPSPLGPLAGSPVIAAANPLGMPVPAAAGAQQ
T11 sequence (Q6DT37 whole entry): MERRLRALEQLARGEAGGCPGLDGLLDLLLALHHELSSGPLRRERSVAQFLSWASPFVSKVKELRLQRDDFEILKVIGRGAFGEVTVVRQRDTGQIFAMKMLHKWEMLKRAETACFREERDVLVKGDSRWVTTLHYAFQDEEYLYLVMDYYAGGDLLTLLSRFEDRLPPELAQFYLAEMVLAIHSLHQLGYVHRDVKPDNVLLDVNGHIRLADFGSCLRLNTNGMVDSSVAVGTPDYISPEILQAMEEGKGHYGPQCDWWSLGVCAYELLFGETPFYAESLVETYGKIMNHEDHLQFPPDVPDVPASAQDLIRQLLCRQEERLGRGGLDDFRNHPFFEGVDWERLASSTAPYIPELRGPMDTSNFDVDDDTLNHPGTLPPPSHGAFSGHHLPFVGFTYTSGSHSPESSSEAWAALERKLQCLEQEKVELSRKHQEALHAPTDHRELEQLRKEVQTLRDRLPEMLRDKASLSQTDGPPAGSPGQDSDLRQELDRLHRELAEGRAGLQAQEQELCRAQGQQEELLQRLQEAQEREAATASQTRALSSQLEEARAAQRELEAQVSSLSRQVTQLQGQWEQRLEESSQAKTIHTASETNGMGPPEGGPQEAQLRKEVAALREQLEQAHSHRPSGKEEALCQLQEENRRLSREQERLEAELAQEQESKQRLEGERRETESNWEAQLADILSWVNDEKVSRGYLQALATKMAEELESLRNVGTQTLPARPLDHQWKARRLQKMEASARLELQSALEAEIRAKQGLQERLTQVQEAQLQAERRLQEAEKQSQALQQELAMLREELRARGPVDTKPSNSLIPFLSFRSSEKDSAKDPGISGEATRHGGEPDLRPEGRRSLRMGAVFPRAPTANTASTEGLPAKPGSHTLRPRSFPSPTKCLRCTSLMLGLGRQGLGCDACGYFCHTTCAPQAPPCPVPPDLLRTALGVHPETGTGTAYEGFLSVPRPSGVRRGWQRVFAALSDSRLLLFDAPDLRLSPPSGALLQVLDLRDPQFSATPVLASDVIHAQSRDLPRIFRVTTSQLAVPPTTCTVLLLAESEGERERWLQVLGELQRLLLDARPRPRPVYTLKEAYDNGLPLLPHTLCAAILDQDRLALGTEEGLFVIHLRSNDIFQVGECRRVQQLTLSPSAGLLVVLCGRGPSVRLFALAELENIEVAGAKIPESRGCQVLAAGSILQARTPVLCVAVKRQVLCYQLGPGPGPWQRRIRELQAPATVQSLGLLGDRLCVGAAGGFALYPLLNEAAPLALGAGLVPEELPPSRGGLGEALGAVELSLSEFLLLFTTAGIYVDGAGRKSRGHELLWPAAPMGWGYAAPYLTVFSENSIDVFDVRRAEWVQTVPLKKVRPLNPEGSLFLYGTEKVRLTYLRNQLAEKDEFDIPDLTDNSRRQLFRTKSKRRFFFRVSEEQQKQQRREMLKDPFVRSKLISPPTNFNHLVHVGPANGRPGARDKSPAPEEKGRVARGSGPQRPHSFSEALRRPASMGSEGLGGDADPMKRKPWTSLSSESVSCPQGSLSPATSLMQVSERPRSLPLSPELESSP

As to `Cc1ccc(C(=O)Nc2ccc(CN3CCN(C)CC3)c(C(F)(F)F)c2)cc1C#Cc1cnc2c(Nc3cnn(C)c3)cccn12` [Example 1, 4-methyl-3-((8-((1-methyl-1H-pyrazol-4-yl)amino)imidazo[1,2-a]pyridin-3-yl)ethynyl)-N-(4-((4-methylpiperazin-1-yl)methyl)-3-(trifluoromethyl)phenyl)benzamide], the remaining binding at 1 µM stood at 77% in test [1]; 6% in [2]; 0% in [3]; 83% in test [4]; 11% in test [5]; 38% in [6]. Also, the remaining binding at 1 µM worked out at 0% in test [7]; 100% in [8]; 100% in test [9]; 95% in test [10]; 100% in test [11]; 9% in test [12]. Also, the remaining binding at 1 µM in test [13] amounted to 24%.

On to `Cc1cn(-c2cc(NC(=O)c3ccc(C)c(C#Cc4cnc5c(Nc6cnn(C)c6)cccn45)c3)cc(C(F)(F)F)c2)cn1` [Example 12, 4-methyl-N-(3-(4-methyl-1H-imidazol-1-yl)-5-(trifluoromethyl)phenyl)-3-((8-((1-methyl-1H-pyrazol-4-yl)amino)imidazo[1,2-a]pyridin-3-yl)ethynyl)benzamide], for which the remaining binding at 1 µM in [1] turned out to be 100%; in test [2] it was 40%; in test [3], 7%; in [4], 100%; in test [5], 42%; in [6], 70%. Further, the remaining binding at 1 µM in test [7] came out at 3%; in test [8], 99%; in [9], 96%; in test [10], 100%; in [11] it was 92%; in test [12], 12%. Further, the remaining binding at 1 µM in test [13] was determined as 15%.

With `Cc1ccc(NC(=O)C2(C(=O)Nc3ccc(F)cc3)CC2)cc1C#Cc1cnc2c(Nc3cnn(C(C)C)c3)cccn12` [Example 78], the remaining binding at 1 µM was determined as 100% in [1]; 100% in test [2]; 3% in [3]; 100% in test [4]; 100% in [5]; 99% in test [6]. For the same molecule, the remaining binding at 1 µM is 63% in test [7]; 100% in test [8]; 80% in [9]; 100% in test [10]; 100% in [11]; 94% in test [12]. For the same molecule, in test [13], the remaining binding at 1 µM worked out at 50%.
